Test results: US12054510B2, “2′ and/or 5′ amino-acid ester phosphoramidate 3′-deoxy adenosine derivatives as anti-cancer compounds” (Nucana plc, priority 2014, dated 2024)

Experiments:
Assay in all cases: Solid tumour and haematological malignancy assay (CellTiterGlo)
Format in all cases: cell-based
THP-1 = details: 72 hr
MV4-11 = details: for IC50: Homo sapiens, MV4-11, 72 h, read-out: IC50 (absolute IC50)
RL = details: Homo sapiens, 72 h, read-out: MI %
CCRFCEM = details: Homo sapiens, CCRF-CEM, 72 h
Protocol: In vitro viability assay were performed to assess the effects of compounds on cell viability in selected cell lines over 72 hr using the CellTiterGlo (CTG, Promega-G7573) assay. […] Cell viability assay using CellTiterGlo in 96-well plate were performed. Compound treatment 72 hrs, standard growth conditions, duplicates. Compounds were dissolved to 40 mM with thawed 100%. […] After compounds were dissolved in media, media containing compounds were warmed to 37° C. in incubator and then compounds in media were added to cell plates (50 μl+50 μl) in duplicates. […] All compound solubilities were checked and recorded again, then the plates were transferred to CO2 tissue culture incubator immediately and incubated for 3 days. DMSO final concentration is 0.5%.

Z138 = details: 72 hr
NCI-H929 = details: Homo sapiens, NCI-H929, 72 h, read-out: MI %

Structure (SMILES)	MI % (THP-1)	IC50 (MV4-11)	Emax (RL)	IC50 (CCRFCEM; read-out: IC50 (absolute IC50))	MI % (Z138)	MI % (MV4-11; MV4-11, 72 hr)	Emax (NCI-H929)	Emax (CCRFCEM; read-out: MI %)
C[C@H](NP(=O)(OC[C@@H]1C[C@@H](O)[C@H](n2cnc3c(N)ncnc32)O1)Oc1cccc2ccccc12)C(=O)OCc1ccccc1 (stereo partly drawn) [B, (2S)-benzyl 2-(((((2S,4R,5R)-5-(6-amino-9H-purin-9-yl)-4-hydroxytetrahydrofuran-2-yl)methoxy)(naphthalen-1-yloxy)phosphoryl)amino)propanoate]	99%	0.1 to 5 µM	96%	100 to 5000 nM	–	–	–	–
COC(=O)C(C)(C)NP(=O)(OC[C@@H]1C[C@@H](O)[C@H](n2cnc3c(N)ncnc32)O1)Oc1cccc2ccccc12 (stereo partly drawn) [E, Methyl 2-(((((2S,4R,5R)-5-(6-amino-9H-purin-9-yl)-4-hydroxytetrahydrofuran-2-yl)-methoxy)(naphthalen-1-yloxy)phosphoryl)amino)-2-methylpropanoate]	43%	5 to 15 µM	88%	–	93%	101%	98%	–
CCOC(=O)CCc1ccccc1OP(=O)(N[C@@H](C)C(=O)OCc1ccccc1)OC[C@@H]1C[C@@H](O)[C@H](n2cnc3c(N)ncnc32)O1 (stereo partly drawn) [F, (2S)-benzyl 2-(((((2S,4R,5R)-5-(6-amino-9H-purin-9-yl)-4-hydroxytetrahydrofuran-2-yl)methoxy)(2-(3-ethoxy-3-oxopropyl)phenoxy)phosphoryl)amino)propanoate]	–	–	–	–	76%	–	–	101%
